# Source: patent publication US20220282285A1, “GENETICALLY-EDITED IMMUNE CELLS AND METHODS OF THERAPY” (REGENTS OF THE UNIVERSITY OF MINNESOTA, priority 2019, published 2022)
# Entries after “also recorded” stand apart in the source; their conditions may differ.
# What was measured:
# [1] = tested on: T cells; assay: Viable cell count and percentage of viable cells post-electroporation with supplements; assay type: cell-based; settings: day 7 post-electroporation; NAC 10 mM for duration, anti-IFNAR2 antibody once at 10 μg/ml
# Procedure: This example examined the effects of treatment with NAC, Akt VIII inhibitor, or anti-IFNAR2, on post-electroporation T cell survival as well as transfection efficiency. In these experiments, 2×10^6 cells in 100 μl were electroporated non-sequentially at 36 hr post-stimulation. After electroporation, the cells were recovered for 15 min, and then split equally among 5 different supplement conditions, as listed in Table 5. NAC was added to the medium at 10 mM for duration, Akt VIII inhibitor at 8 μM for duration, and anti-IFNAR2 antibody was added to the media once at 10 μg/ml. “Nuc” in Table 2 and FIGS. 22A-22D denotes the condition where exogenous DNA was added to be inserted into cell genome at 20 μg (“+20 μg), 35 μg (“+35 μg), or 50 μg (“+50 μg”).
# FIG. 23A-FIG. 23C show graphs of viable cell count in each condition on day 2, 5, and 7 post-electroporation, respectively. FIG. 23D-FIG. 23F show graphs of percentage of viable cells in each condition on day 2, 5, and 7 post-electroporation, respectively.
# [2] = tested on: primary T cells; assay: Transfection efficiency: GFP or mTCR transgene expression by FACs on day 7 / day 14 post electroporation; assay type: cell-based, human; settings: for stable transgene expression (percent GFP or mTCR): 14 days post-transfection, electroporated on day 0 or day 1 post stimulation (FIG. 18); for transgene expression (day 7 percent GFP or mTCR expression): T cells electroporated on day 0 or day 1 post stimulation (FIG. 17); for transgene expression (percent GFP+ or mTCR+ cells): day 14 post electroporation of plasmid donor on day 0 or day 1, Cas9, gRNA (FIG. 16)
# Procedure: Electroporated T cells are analyzed by flow cytometry ˜24-48 hours after transfection to test for expression of GFP or other fluorochrome (marker for transgene expression). For knockout experiments, analysis for loss of target protein is conducted between 7-9 days post transfection. For knock-in experiments, measure marker expression on day 7 and day 14. Cells are prepared by washing with chilled 1×PBS with 0.5% FBS and stain according to manufacturer recommendations for each antibody.
# Transfection efficiency was also assessed by examining the stable expression of the transgenes introduced by the plasmids. FIG. 15C is a graph showing percentage of GFP-expressing cells in each group of cells, and FIG. 15D is a graph showing percentage of mTCR-expressing cells in each group of cells. In these experiments, the primary T cells were transfected through electroporation with plasmid donor expressing GFP or mTCR on day 0 or 1, FACs was performed to examine the transgene expression on day 14 post electroporation.
# This example examined the effects of treatment of electroporated T cells with DNase, RS-1, or both DNase and RS-1, on transfection efficiency. Primary T cells were transfected through electroporation with plasmid donor expressing GFP or mTCR on day 0 or 1, FACs was performed to examine the transgene expression on day 14 post electroporation.
# FIGS. 17A-17D are FACs density plots of T cells on day 7 post electroporation.
# FIGS. 18A-18B are FACs density plots of T cells on day 14 post electroporation.
# [3] = tested on: T cells from donors 055330, 119866, 120534; assay: FACs analysis of electroporation efficiency (mTCR), single or sequential electroporation; assay type: cell-based, human
# [4] = tested on: Primary human T cells; assay: Percent recovery of viable transfected cells 24 hr post electroporation by flow cytometry; assay type: cell-based; settings: for percent recovery of the transfected cells: 24 hr post electroporation, DNase 10 μg/ml in recovery media
# Procedure: This example examined the effect of DNase on post-electroporation T cell survival as well as transfection efficiency. Primary human T cells were cultured and stimulated with IL-2, IL-7, and IL-15. Later the T cells were either pulsed (control) or transfected with 1.5 μg of pMND-GFP plasmid (about 7.5 kb) at 36 hr or 48 hr post-stimulation. For comparison, DNase was added to recovery media of one group of transfected cells at 10 μg/ml. Cells were incubated in this recovery media following electroporation for 30 min. And after recovery, 2 times volume of complete media was added without any wash step (therefore diluted DNase remained in the media).
# Cells were analyzed 24 hr post electroporation by flow cytometry to determine the percentage of recovered viable cells, as shown in FIG. 15A. FIG. 15B is a graph showing the percent recovery of the transfected cells in each group. DNase increased percent recovery in both “36 hr pMND-GFP” group, where cells were transfected with pMND-GFP plasmid at 36 hr post-stimulation, and “48 hr pMND-GFP” group, where cells were transfected with pMND-GFP at 48 hr post-stimulation.
# [5] = tested on: activated T cell culture; assay: Cell clumping / T cell survival 24 hours following electroporation with plasmid donor vector; assay type: cell-based, human; settings: DNase in culture medium vs none
# Procedure: • (a) Stimulated T cells are electroporated using the Neon Transfection System (100 uL or 10 ul Kit, Invitrogen, Life Technologies). • (b) Pellet cells and wash once with PBS or T buffer. • (c) Resuspend cells at a density of […] in 10 uL of T buffer for 10 ul tip, and 1×10^6 cells in 100 ul T buffer for 100 ul tips. • (d) Add specified mass of mRNA/DNA and electroporated at 1400 V, 10 ms, 3 pulses. • a. For knockout using all mRNA: • i. 100 ul tip: 15 ug Cas9 mRNA, 10 ug gRNA-RNA • ii. 10 ul tip: 1.5 ug Cas9 mRNA, 1 ug gRNA-RNA • b. When including plasmid donor for knock-in: • i. 100 ul tip: 5-20 ug plasmid • ii. 10 ul tip: 0.5-2 ug plasmid • c. For sequential electroporations: • On 0 hr timepoint deliver the amount of Cas9 specified in “a” • ii. At time point 0 hr and 6-24 hr, deliver gRNA and plasmid together in amounts specified in “a” and “b”. • (e) After transfection, plate cells at 3000 cells/ul in antibiotic free culture media containing 10 ug/ml DNase I and incubate at 37° C. in 5% CO2 for ˜20 minutes. • (f) After recovery period, add 2 times volume of antibiotic containing media to well and culture at 37° C. in 5% CO2. rAAV Transduction of CD3+ T Cells • (a) Thaw rAAV on ice and mix well prior to addition to cells. • (b) Add specified MOI at the following timepoints post-electroporation • a. For Cas9 mRNA edited cells: • i. Add virus 4-6 hours post • b. […]
# [6] = donor 055330, 36 hours post stimulation or 36 hours post stimulation and 6 hours post initial electroporation
# [7] = donor 119866, 36 hours post stimulation or 36 hours post stimulation and 6 hours post initial electroporation
# [8] = donors 055330 and 119866 at 24 hours post initial electroporation, donor 120534 at 36 hours post stimulation or plus 6 hours (FIG. 21)
# [9] = T cells transfected on day 1, day 14 post electroporation, plasmid donor, Cas9, gRNA
# [10] = day 14 post electroporation of plasmid donor on day 0 or 1, with vs without DNase
Compound,cell viability [1],stable transgene expression (percent GFP or mTCR) [2],transgene expression (day 7 percent GFP or mTCR expression) [2],transgene expression (percent GFP+ or mTCR+ cells) [2],"transgene (mTCR) expression, electroporation efficiency [3, 6]","transgene (mTCR) expression, electroporation efficiency [3, 7]","transgene (mTCR) expression, electroporation efficiency [3, 8]","GFP expression (percentage of GFP+ cells) [2, 9]","mTCR expression (percentage of mTCR+ cells) [2, 9]","integration efficiency, percentage of GFP-expressing cells [2, 10]","integration efficiency, percentage of mTCR-expressing cells [2, 10]","lymphocyte survival after transfection ([4]; 24 hours post-electroporation of a plasmid, culture with vs without DNase)",percent recovery of the transfected cells ([4]; pMND-GFP plasmid at 36 hr post-stimulation),percent recovery of the transfected cells ([4]; pMND-GFP plasmid at 48 hr post-stimulation),cell clumping and floating dead cells [5]
"CC(=O)N[C@@H](CS)C(=O)O [NAC, N-acetyl-cysteine]",increased,,,,,,,,,,,,,,
"O=C(Nc1ccc(Br)cc1)c1ccc(Br)c(S(=O)(=O)NCc2ccccc2)c1 [RS-1, 3-((benzylamino)sulfonyl)-4-bromo-N-(4-bromophenyl)benzamide]",,increased,increased,increased,increased,increased,increased,,,,,,,,
DNase,,increased,increased,increased,increased,increased,increased,promoted,promoted,increased,increased,increased,increased,increased,no cell clumps were visible; also recorded: did not show cell clumping or floating cell corpses
